The record followed here is PMC12488499, “Molecular mechanism of ultrafast transport by plasma membrane Ca^2+-ATPases” (Nature, 2025).

Assay [1] deals with T1, PMCA2 (Mus musculus, UniProt Q9R0K7). The assay is described as follows: cryo-EM structure, E1-ATP state. It is filed as binding. Details: gene Atp2b2; mouse PMCA2 (NM_001036684.3) with C-terminal FLAG or His-FLAG tag, expressed in tsA201 NPTN/BSG double knockout cells; with NPTN.
In assay [2] the target is T1, PMCA2. The assay is described as follows: whole-cell patch clamp, BKCa-based Ca2+ transport assay in CHO cells. More on the design: gene Atp2b2; PMCA2 C-terminally fused with GFP, co-expressed with NPTN-RFP in CHO cells; with NPTN. Background: The patch-clamp technique gives a direct electrical read-out from membranes.

T1 sequence (Q9R0K7 whole entry, the tested form may be a part): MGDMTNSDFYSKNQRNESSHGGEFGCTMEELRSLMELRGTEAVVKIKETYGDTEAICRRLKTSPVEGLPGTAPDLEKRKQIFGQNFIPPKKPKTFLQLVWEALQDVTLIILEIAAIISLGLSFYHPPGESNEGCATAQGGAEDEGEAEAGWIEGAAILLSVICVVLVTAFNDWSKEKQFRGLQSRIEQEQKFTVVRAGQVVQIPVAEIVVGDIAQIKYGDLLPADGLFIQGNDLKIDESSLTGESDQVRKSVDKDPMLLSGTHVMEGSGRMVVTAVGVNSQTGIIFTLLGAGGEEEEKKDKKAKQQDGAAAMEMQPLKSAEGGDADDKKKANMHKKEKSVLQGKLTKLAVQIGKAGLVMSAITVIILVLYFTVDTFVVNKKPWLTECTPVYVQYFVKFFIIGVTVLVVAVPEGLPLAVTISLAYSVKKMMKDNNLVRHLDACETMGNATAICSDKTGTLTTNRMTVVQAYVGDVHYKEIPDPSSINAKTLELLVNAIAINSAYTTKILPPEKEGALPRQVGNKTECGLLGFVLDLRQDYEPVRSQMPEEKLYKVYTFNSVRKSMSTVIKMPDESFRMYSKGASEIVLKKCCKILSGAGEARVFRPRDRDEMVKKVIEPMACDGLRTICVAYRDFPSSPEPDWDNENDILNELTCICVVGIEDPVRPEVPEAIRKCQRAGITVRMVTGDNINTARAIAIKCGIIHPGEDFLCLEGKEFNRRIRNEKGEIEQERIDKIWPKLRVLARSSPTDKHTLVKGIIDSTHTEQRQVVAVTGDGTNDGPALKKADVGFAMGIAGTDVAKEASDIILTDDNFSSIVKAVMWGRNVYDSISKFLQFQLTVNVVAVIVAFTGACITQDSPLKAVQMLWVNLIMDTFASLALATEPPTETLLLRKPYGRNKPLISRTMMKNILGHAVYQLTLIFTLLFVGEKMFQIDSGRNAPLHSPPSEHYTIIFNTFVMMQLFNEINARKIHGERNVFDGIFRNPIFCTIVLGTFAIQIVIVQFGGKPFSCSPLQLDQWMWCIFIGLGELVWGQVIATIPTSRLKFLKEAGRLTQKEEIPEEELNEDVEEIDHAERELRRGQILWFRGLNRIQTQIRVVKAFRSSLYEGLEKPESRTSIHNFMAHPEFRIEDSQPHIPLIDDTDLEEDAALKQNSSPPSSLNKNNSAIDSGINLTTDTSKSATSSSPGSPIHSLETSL
T1 sequence (P97300 29-397 partner): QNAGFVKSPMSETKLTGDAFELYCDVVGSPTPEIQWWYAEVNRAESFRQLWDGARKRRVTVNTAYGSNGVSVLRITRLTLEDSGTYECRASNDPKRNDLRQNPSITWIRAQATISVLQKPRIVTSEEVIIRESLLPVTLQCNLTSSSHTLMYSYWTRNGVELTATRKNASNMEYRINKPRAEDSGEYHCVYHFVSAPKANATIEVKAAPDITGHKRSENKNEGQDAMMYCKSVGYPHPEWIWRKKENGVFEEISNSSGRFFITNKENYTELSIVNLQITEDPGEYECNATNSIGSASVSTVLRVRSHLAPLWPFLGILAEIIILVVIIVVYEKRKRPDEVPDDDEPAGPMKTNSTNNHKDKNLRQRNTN

Consider `Nc1ncnc2c1ncn2[C@@H]1O[C@H](CO[P@](=O)(O)O[P@](=O)(O)NP(=O)(O)O)[C@@H](O)[C@H]1O` [AMPPNP], for which the “cryo-EM structure, E1-ATP state” value on PMCA2 [1] is “The bound AMPPNP molecule is shown, with the corresponding cryo-EM density in grey”.

`C/C=C(/C)C(=O)O[C@H]1C(C)=C2[C@H]([C@@H]1OC(=O)CCCCCCC)[C@@](C)(OC(C)=O)C[C@H](OC(=O)CCC)[C@@]1(O)[C@H]2OC(=O)[C@@]1(C)O` [thapsigargin]: at PMCA2 [2], half-maximal inhibition (IC50) was put at 2600 nM. In other words, the single-digit micromolar range.

By IC50 is commonly meant the concentration that gives 50% inhibition. High values mean a need for much substance, low ones inhibition by little substance.
